Test results published in ChEMBL document CHEMBL2413067, “Investigation into the functional impact of the vancomycin C-ring aryl chloride” (2013).
≈ marks a conversion by molar mass, not a printed value.

Assays:
[1] = system: Staphylococcus aureus; experiment: Antimicrobial activity against vancomycin-sensitive Staphylococcus aureus ATCC 25923 after 24 hrs; assay type: functional; settings: ATCC 25923, 24 h
[2] = Binding affinity to N,N'-Ac2-L-Lys-D-Ala-D-Ala model of cell wall ligand by UV-difference assay
[3] = Binding affinity to N,N'-Ac2-L-Lys-D-Ala-D-Ser model of cell wall ligand by UV-difference assay
[4] = Binding affinity to N,N'-Ac2-L-Lys-D-Ala-D-Phe model of cell wall ligand by UV-difference assay
[5] = Binding affinity to N,N'-Ac2-L-Lys-D-Ala-Gly model of cell wall ligand by UV-difference assay

SMILES | MIC [1] | Ka [2] | Ka [3] | Ka [4] | Ka [5]
CN[C@H](CC(C)C)C(=O)N[C@H]1C(=O)N[C@@H](CC(N)=O)C(=O)N[C@H]2C(=O)N[C@H]3C(=O)N[C@H](C(=O)N[C@H](C(=O)O)c4cc(O)cc(O)c4-c4cc3ccc4O)[C@H](O)c3ccc(cc3)Oc3cc2cc(c3O)Oc2ccc(cc2)[C@H]1O | 20 µg/mL (≈ 18.6 µM) | 0.18 ×10⁵ /M | – | – | –
CN[C@H](CC(C)C)C(=O)N[C@H]1C(=O)N[C@@H](CC(N)=O)C(=O)N[C@H]2C(=O)N[C@H]3C(=O)N[C@H](C(=O)N[C@H](C(=O)O)c4cc(O)cc(O)c4-c4cc3ccc4O)[C@H](O)c3ccc(c(Cl)c3)Oc3cc2cc(c3O[C@@H]2O[C@H](CO)[C@@H](O)[C@H](O)[C@H]2O[C@H]2C[C@](C)(N)[C@H](O)[C@H](C)O2)Oc2ccc(cc2Cl)[C@H]1O [VANCOMYCIN] | 1.25 µg/mL (≈ 0.863 µM) | 1.8 ×10⁵ /M | – | – | –
CN[C@H](CC(C)C)C(=O)N[C@H]1C(=O)N[C@@H](CC(N)=O)C(=O)N[C@H]2C(=O)N[C@H]3C(=O)N[C@H](C(=O)N[C@H](C(=O)O)c4cc(O)cc(O)c4-c4cc3ccc4O)[C@H](O)c3ccc(cc3)Oc3cc2cc(c3O)Oc2ccc(cc2Cl)[C@H]1O | 10 µg/mL (≈ 9.01 µM) | 0.38 ×10⁵ /M | 4 ×10³ /M | 9 ×10² /M | 0.49 ×10⁴ /M
CN[C@H](CC(C)C)C(=O)N[C@H]1C(=O)N[C@@H](CC(N)=O)C(=O)N[C@H]2C(=O)N[C@H]3C(=O)N[C@H](C(=O)N[C@H](C(=O)O)c4cc(O)cc(O)c4-c4cc3ccc4O)[C@H](O)c3ccc(c(Cl)c3)Oc3cc2cc(c3O)Oc2ccc(cc2Cl)[C@H]1O [VANCOMYCIN AGLYCON] | 1.25 µg/mL (≈ 1.09 µM) | 1.4 ×10⁵ /M | 3.3 ×10³ /M | 9.1 ×10² /M | 1 ×10⁴ /M
